Source: ChEMBL document CHEMBL1128595, “Synthesis and biological activity of 7-alkylidenecephems” (J Med Chem, 1995)

Molecular target: Beta-lactamase (Enterobacter cloacae) (UniProt P05364)
Experiment: The beta-lactamase inactivation partition ratio of the compound

Question: `CC(=O)OCC1=C(C(=O)[O-])N2C(=O)/C(=C/c3ccccn3)[C@H]2S(=O)(=O)C1.[Na+]` was tested. Which Partition ratio did it give?
Answer: 20

Question: For `CC(=O)OCC1=C(C(=O)[O-])N2C(=O)C(=C=CC(C)(C)C)[C@H]2S(=O)(=O)C1.[Na+]`, which Partition ratio is on record?
Answer: 12
